From ChEMBL document CHEMBL1152316, “Caryophyllenes from a fungal culture of Chrysosporium pilosum” (2009)
≈ marks a conversion by molar mass, not a printed value. Calls of active or inactive are those of the source. The calls are words filed in the database; no cut-off is given here.

Tests used:
[1] = tested on: Saccharomyces cerevisiae; experiment: Antifungal activity against Saccharomyces cerevisiae PM503 after 48 hrs; type: functional; conditions: PM503, 48 h
[2] = tested on: Saccharomyces cerevisiae; experiment: Antifungal activity against Saccharomyces cerevisiae PM503 assessed as zone of inhibition after 48 hrs; type: functional, organism-based

MIC [1]	Compound	Activity [2]
60 µg/mL (≈ 238 µM)	C/C1=C/C(=O)[C@@H](O)[C@@H](CO)[C@@H]2CC(C)(C)[C@H]2CC1	inactive
	C=C1CC[C@H]2[C@@H](CC2(C)C)[C@H]2CO[C@@](O)(C1)C2=O	inactive
	C/C1=C/C(=O)[C@@H](O)[C@@]2(CO2)[C@@H]2CC(C)(C)[C@H]2CC1	inactive
	C/C1=C/[C@H](O)C(=O)[C@@H](CO)[C@@H]2CC(C)(C)[C@H]2CC1	inactive
